The text below walks through data of patent EP1611112B1, “ISOXAZOLE COMPOUNDS AS INHIBITORS OF HEAT SHOCK PROTEINS” (Vernalis (Cambridge) Limited, priority 2003, dated 2004).

Experiment [1] addresses T1, yeast HSP90 (Saccharomyces cerevisiae, UniProt P02829).
T1 construct: made in house; host or cells: E. coli
Kind of experiment: Malachite Green ATPase assay. The format is biochemical. The settings on record: activity range. The source says:
The intrinsic ATPase activity of HSP90 may be measured using yeast HSP90 as a model system. The assay, based on the use of malachite green for the measurement of inorganic phosphate, was used to test the HSP90 inhibitory activity of some of the compounds of the Examples herein.
Malachite Green ATPase Assay
Chemicals are of the highest purity commercially available and all aqueous solutions are made up in AR water. Because of the need to minimise contamination with inorganic phosphate, precautions should be taken with solutions and apparatus used in the assays. Glassware and pH meters are rinsed with double distilled or deionised water before use and, wherever possible, plastic ware should be used. Gloves are worn for all procedures. • (1) Greiner 384-well (Greiner 781101) or Costar 384-well flat-bottomed polystyrene multiwell plates (VWR). • (2) Assay buffer of (a) 100mM Tris-HCI, pH 7.4, (b) 150mM KCI, (c) 6mM MgCl2. Stored at room temperature. • (3) 0.0812% (w/v) malachite green (M 9636, Sigma Aldrich Ltd., Poole, UK). Stored at room temperature. • (4) 2.32% (w/v) polyvinyl alcohol USP (P 1097, Sigma Aldrich Ltd, Poole, UK) in boiling water (see Comment 1), allowed to cool, and stored at room temperature. • (5) 5.72% (w/v) ammonium molybdate in 6 M hydrochloric acid. Stored at room temperature. • (6) 34% (w/v) sodium citrate. Stored at room temperature. • (7) 100mM ATP, disodium salt, special quality (47699, Sigma Aldrich). Stored at -20°C. • (8) E. coli expressed yeast HSP90 protein, purified >95% (see, e.g., Panaretou et al., 1998) and stored in 50uL aliquots at -80°C.
• 1. Dilute test compounds to 500µM in AR water (DMSO concentration will be 2.5%). Transfer 2.5µl of these compounds directly from the daughter plate to the assay plate, giving a final assay concentration of 100µM. […] Column 1 in the assay plate contains no compound, as a negative control. An additional row with no compound is also used as a background. • 2. Prepare ATP by diluting 100mM stock to 925µM with assay buffer, and aliquot 5µl of diluted ATP to each well including controls (final assay concentration 370µM). • 3. Add 5µl of buffer to background row. • 4. Dilute enzyme preparation to 1.05µM with assay buffer, and aliquot 5µl into each compound well and to the negative control column. • 5. Collect the reagents to the bottom of the well, cover plate with plate seal and incubate overnight at 37degC. • 6. First thing in the morning prepare the Malachite Green Reagent. Add 2parts of Malachite Green Solution, 1 part of Polyvinyl Alcohol Solution, 1 part of Ammonium Molybdate Solution, and 2 parts of AR water. • 7. Invert to mix, and leave for approximately 1 hour until the colour turns from brown to golden yellow. • 8. Add 40µl of Malachite Green Reagent to each well, allow 5 mins for colour to develop. • 9. Add 5µl of Sodium Citrate Reagent to each well (see comment 2) • 10. Re-cover with plate seal and shake on plate shaker for at least 15 mins. • 11. Measure Absorbance at 620nm using a suitable plate reader (e.g. Victor, Perkin Elmer Life Sciences, Milton Keynes, UK). Under these conditions, the control absorbance is 0.9 to 1.4, and the background is 0.2-0.35 giving a signal to noise ratio of -12. The Z' factor calculated from data obtained using these conditions is between 0.6 and 0.9.
• (1) The polyvinyl alcohol dissolves in boiling water with difficulty and stirring for 2-3 h is required. • (2) The time interval between addition of the malachite green reagent and the sodium citrate should be kept as short as possible in order to reduce the non-enzymatic hydrolysis of ATP. Once the sodium citrate is added, the colour is stable for up to 4 h at room temperature. • (3) Compounds can be added to the assay plates using a Biomek FX Robot (Beckman Coulter). […]

Experiment [2] has as its target T2, human full-length HSP90 (Homo sapiens, UniProt P08238).
T2 construct: E. coli expressed human full-length HSP90 protein; made in house; host or cells: E. coli
Kind of experiment: Fluorescence Polarisation Assay (displacement of fluorescein-labelled probe RBT0045864-FAM). Type of experiment: binding. The source says: A Fluorescence Polarization_assay was also employed for the evaluation of some of the compounds of the Examples:
Fluorescence polarization {also known as fluorescence anisotropy} measures the rotation of a fluorescing species in solution, where the larger molecule the more polarized the fluorescence emission.
When the fluorophore is excited with polarized light, the emitted light is also polarized. The molecular size is proportional to the polarization of the fluorescence emission.
Test compound is added to the assay plate, left to equilibrate and the anisotropy measured again. Any change in anisotropy is due to competitive binding of compound to HSP90, thereby releasing probe.
Stored at room temperature. • 3) BSA (bovine serum albumen) 10 mg/ml (New England Biolabs # B9001S) • 4) 20 mM probe in 100 % DMSO stock concentration. Stored in the dark at RT. Working concentration is 200 nM diluted in AR water and stored at 4 °C.
1) Add 100µl 1x buffer to wells 11A and 12A (=FP BLNK) 2) Prepare assay mix - all reagents are kept on ice with a lid on the bucket as the probe is light-sensitive.
This gives 2.5 mM {50x} stock cpd - assuming cpds 20 mM. • 4) Repeat for wells A2 to A10. Control in columns 11 and 12. • 5) Transfer 5 µl from row A to row B- not column 12. Mix well. • 6) Transfer 5 µl from row B to row C. […] Add 2 µl of 100mM standard cpd to wells B12 - H12 {is positive control } • 13)The Z' factor is calculated from zero controls and positive wells.
(In fluorescence polarisation assays a small probe gives low polarisation when free and higher when bound to something large.)

Where [3] appears, read: Fluorescence Polarisation Assay, activity range.
[4] abbreviates: table names no assay, parent examples tested in fluorescence polarization assay.

Molecules are shown by their SMILES. Where a name gives a salt, the structure may show the parent alone. Bounds are passed on as bounds.

T2 sequence (P08238 whole entry): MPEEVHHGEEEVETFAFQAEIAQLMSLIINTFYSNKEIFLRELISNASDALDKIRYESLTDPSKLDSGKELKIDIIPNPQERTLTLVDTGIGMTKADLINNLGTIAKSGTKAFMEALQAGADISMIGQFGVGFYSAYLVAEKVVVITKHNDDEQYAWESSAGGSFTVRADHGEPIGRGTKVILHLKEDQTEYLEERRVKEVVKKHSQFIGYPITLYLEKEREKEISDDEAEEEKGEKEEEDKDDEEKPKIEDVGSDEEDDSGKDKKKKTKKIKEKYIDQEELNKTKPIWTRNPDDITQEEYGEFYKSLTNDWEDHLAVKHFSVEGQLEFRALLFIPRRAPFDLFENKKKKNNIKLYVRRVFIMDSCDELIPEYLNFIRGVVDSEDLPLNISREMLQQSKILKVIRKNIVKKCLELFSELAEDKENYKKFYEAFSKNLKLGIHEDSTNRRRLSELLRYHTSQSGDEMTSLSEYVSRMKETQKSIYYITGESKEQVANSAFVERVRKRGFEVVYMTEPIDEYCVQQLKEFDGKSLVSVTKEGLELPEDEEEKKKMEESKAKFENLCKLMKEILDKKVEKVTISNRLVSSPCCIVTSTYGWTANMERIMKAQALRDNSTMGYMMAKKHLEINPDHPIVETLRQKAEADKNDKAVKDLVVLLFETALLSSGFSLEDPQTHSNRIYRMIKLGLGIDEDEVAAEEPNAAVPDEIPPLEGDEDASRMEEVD
T1 sequence (P02829 whole entry): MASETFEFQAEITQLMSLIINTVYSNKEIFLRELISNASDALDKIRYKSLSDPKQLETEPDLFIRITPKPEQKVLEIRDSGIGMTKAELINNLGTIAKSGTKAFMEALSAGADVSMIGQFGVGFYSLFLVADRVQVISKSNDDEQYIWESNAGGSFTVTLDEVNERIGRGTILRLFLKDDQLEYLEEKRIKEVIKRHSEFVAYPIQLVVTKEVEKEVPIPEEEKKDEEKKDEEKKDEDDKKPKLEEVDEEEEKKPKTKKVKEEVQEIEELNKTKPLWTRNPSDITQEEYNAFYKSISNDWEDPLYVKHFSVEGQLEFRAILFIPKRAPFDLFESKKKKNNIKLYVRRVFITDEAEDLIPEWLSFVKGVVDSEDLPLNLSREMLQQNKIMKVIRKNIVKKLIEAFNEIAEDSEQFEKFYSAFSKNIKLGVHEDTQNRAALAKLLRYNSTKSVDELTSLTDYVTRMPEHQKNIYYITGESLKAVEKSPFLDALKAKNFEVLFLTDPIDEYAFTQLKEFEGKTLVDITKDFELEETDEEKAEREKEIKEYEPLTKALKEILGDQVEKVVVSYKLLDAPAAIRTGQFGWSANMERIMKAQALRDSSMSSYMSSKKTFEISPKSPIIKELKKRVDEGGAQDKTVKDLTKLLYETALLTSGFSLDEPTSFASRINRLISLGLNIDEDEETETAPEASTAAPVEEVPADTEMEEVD

As a reminder, the IC50 is the concentration that gives 50% inhibition. In turn, `COc1ccc(-c2cnoc2-c2cc(Cl)c(O)cc2O)cc1OC` [Example 8] displayed an IC50 in experiment [1] above 50 µM. Same read-out and setting: the result for `Cc1noc(-c2ccc(O)cc2O)c1-c1ccc(F)cc1` [Example 9] reads below 50 µM; that for `COc1ccc(-c2c(C)noc2-c2cc(C(=S)Nc3ccccc3)c(O)cc2O)cc1` [Example 18], above 50 µM.

In the case of `Cc1noc(-c2ccc(O)cc2O)c1-c1ccc2c(c1)OCCO2` [Example 5], the IC50 in experiment [1] was above 50 µM. The same measure, in the same setting: in the case of `COc1ccc(-c2c(C)noc2-c2cc(C=O)c(O)cc2O)cc1` [Example 17] it was above 50 µM. The molecule `CCc1cc(-c2oncc2-c2ccc(OC)c(OC)c2)c(O)cc1O` [Example 11] had a half-maximal inhibitory concentration (IC50) in experiment [1] below 50 µM.

As to `Cc1cc(O)cc(O)c1-c1onc(C(F)(F)F)c1-c1cscn1` [Example 12d], the IC50 in experiment [1] is below 50 µM. `Cc1cc(O)cc(O)c1-c1oncc1-c1csc(-c2ccccc2)n1` [Example 12c]: the IC50 in experiment [1] is below 50 µM. For the molecule `Oc1cc(O)c(-c2oncc2-c2ccc(Br)cc2)cc1Cl` [Example 12a], in experiment [1], the IC50 was below 50 µM. Still for that read-out and setting: in the case of `COc1ccc(-c2c(C)noc2-c2cc(C(=O)Nc3ccccc3OC)c(O)cc2O)cc1` [Example 19] it was below 50 µM; in that of `CCCCCc1noc(-c2ccc(O)cc2O)c1-c1ccc(OC)cc1` [Example 21], below 50 µM. In the case of `CCNC(=O)c1noc(-c2cc(C(C)(C)C)c(O)cc2O)c1-c1ccc(CN2CCOCC2)cc1` [Example 77, 5-(5-tert-Butyl-2,4-dihydroxy-phenyl)-4-(4-morpholin-4-ylmethyl-phenyl)-isoxazole-3-carboxylic acid ethylamide], in experiment [2] (setting [3]), the IC50 is below 10 µM. In experiment [2] (setting [3]), `CCNC(=O)c1noc(-c2cc(Cl)c(O)cc2O)c1-c1ccc2ccccc2c1` [Example 32] registered an IC50 below 10 µM. As to `CC(C)NC(=O)c1noc(-c2cc(Cl)c(O)cc2O)c1-c1ccc(CN2CCCCC2)cc1` [Example 41p], the IC50 in experiment [2] (setting [3]) is below 10 µM. In turn, `Oc1ccccc1-c1oncc1-c1ccc2c(c1)OCCO2` [Example 7] displayed an IC50 in experiment [1] above 50 µM. With `CCNC(=O)c1onc(-c2cc(Cl)c(O)cc2O)c1-c1ccc(OC)cc1` [Example 76B], in experiment [2] (setting [4]), the IC50 is below 10 µM. In the case of `CCNC(=O)c1noc(-c2cc(Cl)c(O)cc2O)c1-c1ccc(CN2CCC(O)CC2)cc1` [Example 53], the IC50 in experiment [2] (setting [3]) is below 10 µM. On to `CC(C)NC(=O)c1noc(-c2cc(C(C)C)c(O)cc2O)c1-c1ccc(CN2CCC(F)(F)CC2)cc1` [Example 78aa], for which, in experiment [2] (setting [4]), the half-maximal inhibitory concentration (IC50) was below 10 µM.

`CCNC(=O)c1noc(-c2cc(Cl)c(O)cc2O)c1-c1ccc(CN(CC)CC)cc1` [Example 49] yielded an IC50 in experiment [2] (setting [3]) below 10 µM. As to `CCNC(=O)c1noc(-c2cc(-c3ccccc3C)c(O)cc2O)c1-c1ccc(CN2CCCCC2)cc1` [Example 75m], in experiment [2] (setting [4]), the IC50 is below 10 µM. The molecule `CCNC(=O)c1noc(-c2cc(Cl)c(O)cc2O)c1-c1ccc(CN2CCOCC2)cc1C` [Example 41j] registered an IC50 in experiment [2] (setting [3]) below 10 µM. `Oc1ccc(Cl)cc1-c1oncc1-c1ccc2c(c1)OCCO2` [Example 6] gave an IC50 in experiment [1] above 50 µM.

Regarding `Cc1noc(-c2cc(Cl)c(O)cc2O)c1-c1ccccc1` [Example 10], the IC50 in experiment [1] was below 50 µM. In the case of `CCNC(=O)c1noc(-c2cc(-c3ccccc3)c(O)cc2O)c1-c1ccc(F)cc1` [Example 67], in experiment [2] (setting [3]), the IC50 was below 10 µM. `COc1ccc(-c2c(C)noc2-c2cc(-c3cccnc3)c(O)cc2O)cc1` [Example 12]: the IC50 in experiment [1] was above 50 µM. `CCNC(=O)c1noc(-c2cc(C(C)C)c(O)cc2O)c1-c1ccc(CN2CCNCC2)cc1` [Example 78p]: in experiment [2] (setting [4]), the IC50 was below 10 µM. In turn, `COc1ccc(-c2c(C)noc2-c2cc(C(OC)c3ccccc3)c(O)cc2O)cc1` (centres unmarked) [Example 20] yielded an IC50 in experiment [1] below 50 µM. Turning to `CCNC(=O)c1noc(-c2cc(C(C)(C)C)c(O)cc2O)c1-c1ccc(CN2CCN(C)CC2)cc1` [Example 77d], the IC50 in experiment [2] (setting [4]) is below 10 µM.

Consider `CCNC(=O)c1noc(-c2cc(CCc3ccccc3)c(O)cc2O)c1-c1ccc(CN2CCOCC2)cc1` [Example 65, 5-(2,4-dihydroxy-5-phenethyl-phenyl)-4-(4-morpholin-4-ylmethylphenyl)-isoxazole-3-carboxylic acid ethylamide hydrochloride], for which the IC50 in experiment [2] (setting [3]) was below 10 µM. For the molecule `CCNC(=O)c1noc(-c2cc(Cl)c(O)cc2O)c1-c1ccc(CN2CCOCC2)c(F)c1` [Example 41g], the IC50 in experiment [2] (setting [3]) is below 10 µM.

In experiment [2] (setting [3]), `CCNC(=O)c1noc(-c2cc(-c3ccc(F)cc3)c(O)cc2O)c1-c1ccc(F)cc1` [Example 71] registered an IC50 below 10 µM. Consider `CC(=O)Nc1cccc(-c2c(C)noc2-c2cc(Cl)c(O)cc2O)c1` [Example 30], for which the IC50 in experiment [2] (setting [3]) was below 10 µM. Take `CCNC(=O)c1noc(-c2cc(C(C)C)c(O)cc2O)c1-c1ccc(CNCCN(CC)CC)cc1` [Example 78n]: in experiment [2] (setting [4]), the IC50 was below 10 µM.

For the molecule `CCNC(=O)c1onc(-c2cc(Cl)c(O)cc2O)c1-c1ccc(CN2CCOCC2)cc1` [Example 76C], the IC50 in experiment [2] (setting [4]) was below 10 µM.

As for `CCNCc1noc(-c2cc(Cl)c(O)cc2O)c1-c1ccc(OC)cc1` [Example 40], in experiment [2] (setting [3]), the IC50 was below 10 µM.
